The text below walks through data of PubChem BioAssay (NCI).

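Grown in 96-well plates, cells were treated for 48 hours with each compound at five concentrations. Insufficient inhibition: endpoint recorded as highest concentration tested. The concentration for 50% growth inhibition is given as GI50. Definition used: TGI = concentration required for complete inhibition of growth.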

Among the test systems are OVCAR-5 ovarian; CCRF-CEM leukemia; RXF 393 renal; IGROV1 ovarian; HL-60(TB) leukemia; OVCAR-8 ovarian; ACHN renal; 786-0 renal; SNB-19 CNS; HOP-92 NSCLC.
Common to all, as to test: NCI-60 cell line screen, 48 h

With `Cc1ccc(S(=O)(=O)NNC(=O)c2cc(C)ccc2NC(=O)C23CC4CC(CC(C4)C2)C3)cc1`, the TGI with OVCAR-5 ovarian was above 100 µM; with CCRF-CEM leukemia, above 100 µM; in the assay with RXF 393 renal, 78 µM; with IGROV1 ovarian, 30.6 µM; in the assay on HL-60(TB) leukemia it was above 100 µM; in the assay with OVCAR-8 ovarian, above 100 µM. Also, the TGI was found to be 44.1 µM in the assay on ACHN renal, 57.3 µM in the assay with 786-0 renal, 57.2 µM in the assay with SNB-19 CNS and 91.5 µM with HOP-92 NSCLC.
`CCCCc1cc2c(C)cc(=O)oc2c(O)c1O`: the TGI with OVCAR-5 ovarian is above 100 µM; with CCRF-CEM leukemia, 56.3 µM; in the assay with RXF 393 renal, 59.6 µM; in the assay on IGROV1 ovarian it was 51.7 µM; in the assay on HL-60(TB) leukemia, 38.4 µM; in the assay on OVCAR-8 ovarian, above 100 µM. Moreover, the TGI with ACHN renal is 94 µM; in the assay with 786-0 renal, 99.4 µM; in the assay on SNB-19 CNS, above 100 µM; with HOP-92 NSCLC it was 59.6 µM.
`Cc1cc(=O)n2nc(SCc3ccccc3)sc2n1`: the TGI in the assay with OVCAR-5 ovarian, in the assay with CCRF-CEM leukemia, in the assay on RXF 393 renal, with IGROV1 ovarian, with HL-60(TB) leukemia and in the assay with OVCAR-8 ovarian was above 100 µM throughout. Also, the TGI in the assay with ACHN renal was 56.2 µM; with 786-0 renal it was above 100 µM; in the assay on SNB-19 CNS, above 100 µM; in the assay with HOP-92 NSCLC it was above 100 µM.
As to `CC(=O)O[C@@H]1C[C@@]23C[C@@]24CC[C@H](OC2OCC(O)C(O)C2O)C(C)(C)[C@@H]4CC=C3[C@]2(C)C[C@@H]3OC4(C[C@@H](C)[C@@H]3[C@@]12C)OC(O)[C@@]1(C)O[C@@H]41` (stereo partly specified), the TGI is above 100 µM in the assay with OVCAR-5 ovarian; 63.5 µM in the assay with CCRF-CEM leukemia; 37.1 µM with RXF 393 renal; above 100 µM with IGROV1 ovarian; 36.4 µM with HL-60(TB) leukemia; above 100 µM in the assay with OVCAR-8 ovarian. The TGI in the assay with ACHN renal was above 100 µM; in the assay with 786-0 renal, 63.1 µM; with SNB-19 CNS, above 100 µM; with HOP-92 NSCLC, above 100 µM.
`COc1cc2c(cc1OCCCC(=O)Nc1cc(C(=O)Nc3cc(C(=O)Nc4cc(C(=O)NCCCN(C)C)n(C)n4)n(C)n3)n(C)n1)N=CC1CCCN1C2=O` (stereo unspecified): the TGI is 72.2 µM with OVCAR-5 ovarian; above 100 µM in the assay on CCRF-CEM leukemia; 43.2 µM in the assay on RXF 393 renal; 7.98 µM in the assay on IGROV1 ovarian; above 100 µM with HL-60(TB) leukemia; above 100 µM in the assay with OVCAR-8 ovarian. The TGI is 38.4 µM with ACHN renal, above 100 µM in the assay on 786-0 renal, 54.4 µM with SNB-19 CNS and above 100 µM with HOP-92 NSCLC.
Consider `c1ccc(CCNCc2ccco2)nc1`, for which the TGI in the assay with OVCAR-5 ovarian, in the assay with CCRF-CEM leukemia, in the assay with RXF 393 renal, with IGROV1 ovarian, with HL-60(TB) leukemia and in the assay on OVCAR-8 ovarian was above 100 µM in each case. Moreover, the TGI in the assay with ACHN renal, in the assay with 786-0 renal, in the assay with SNB-19 CNS and in the assay on HOP-92 NSCLC was above 100 µM in each case.
Regarding `Cc1ccncc1.F[B-](F)(F)F.[Pt+2].c1ccc(-c2cccc(-c3ccccn3)n2)nc1`, the TGI with OVCAR-5 ovarian was 41.4 µM; in the assay on CCRF-CEM leukemia, above 100 µM; in the assay with RXF 393 renal it was 38.4 µM; in the assay on IGROV1 ovarian, above 30.6 µM; with HL-60(TB) leukemia, above 45.7 µM; in the assay on OVCAR-8 ovarian, 31 µM. The TGI in the assay with ACHN renal was 25.1 µM; with 786-0 renal it was 46.4 µM; in the assay with SNB-19 CNS, above 66.7 µM; in the assay with HOP-92 NSCLC, above 100 µM. The GI50 in the assay with HOP-92 NSCLC is 10.2 µM.
On to `O=C1C=CC(=O)C(CNc2ccc(C(=O)OC34CC5CC(CC(C5)C3)C4)cc2)=C1`, for which the TGI in the assay on OVCAR-5 ovarian was 39.2 µM; in the assay with CCRF-CEM leukemia, above 20.4 µM; with RXF 393 renal it was 4.51 µM; with IGROV1 ovarian, 4.86 µM; with HL-60(TB) leukemia it was above 21.6 µM; in the assay on OVCAR-8 ovarian, 56 µM. Moreover, the TGI amounted to 19.1 µM in the assay on ACHN renal, 23 µM in the assay on 786-0 renal, 27.8 µM in the assay on SNB-19 CNS and 13.7 µM in the assay on HOP-92 NSCLC.
